# Patent publication US20250171430A1, “PYRAZOLYL COMPOUNDS AS KV7 CHANNEL ACTIVATORS” (Biohaven Therapeutics Ltd., priority 2022, published 2025)
# Molecular target: T1, Kv7.2/7.3 (Homo sapiens, UniProt O43525+O43526)
# T1 construct: Kv7.2 tetracycline-induced, Kv7.3 constitutive
# Experiment: Kv7.2/7.3 Activation Assay (Thallium Flux Assay)
# Assay type: cell-based
# Conditions: hKV7.2/7.3 cell line; test compound at single concentration of 10 μM; fluorescence at 90 sec normalized to positive control (retigabine, 30 μM)
# In short: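 Single-point activity at 10 μM (0.1% DMSO, HEPES-buffered saline, pH 7.4) was scored from fluorescence at 90 s relative to 30 μM retigabine. Categories were none <0.15, moderate 0.15-0.7 and high >0.7. Thallium influx after stimulus addition was followed with FluxOR II Green dye in hKv7.2/7.3 cells, Kv7.2 expressed under overnight tetracycline (10 ng/mL) induction.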
row,Structure (SMILES),Kv7.2/7.3 Activity
1,"Cn1nc(NC(=O)C[C@@H]2CC(F)(F)C2(F)F)c(C2CCC2)c1CCc1ccccc1 [Compound 61, (R)-N-(4-cyclobutyl-1-methyl-5-phenethyl-1H-pyrazol-3-yl)-2-(2,2,3,3-tetrafluorocyclobutyl)acetamide]",++ (“++” High Activity ≥ 0.7)
2,"Cn1nc(NC(=O)CC2CCCC2)c(C2CCC2)c1-c1ccc(F)cc1 [Compound 102, N-(4-cyclobutyl-5-(4-fluorophenyl)-1-methyl-1H-pyrazol-3-yl)-2-cyclopentylacetamide]",++ (“++” High Activity ≥ 0.7)
3,"CC(C)c1c(NC(=O)C[C@@H]2CC(F)(F)C2(F)F)nn(C)c1-c1ccc(OC(F)(F)F)cc1 [Compound 24, (R)-N-(4-isopropyl-1-methyl-5-(4-(trifluoromethoxy)phenyl)-1H-pyrazol-3-yl)-2-(2,2,3,3-tetrafluorocyclobutyl)acetamide]",++ (“++” High Activity ≥ 0.7)
4,"C[C@@H](C(=O)Nc1nn(C)c(-c2ccc(F)cc2)c1C1CCC1)C1(C(F)(F)F)CC1 [Compound 128, (R)-N-(4-cyclobutyl-5-(4-fluorophenyl)-1-methyl-1H-pyrazol-3-yl)-2-(1-(trifluoromethyl)cyclopropyl)propanamide]",++ (“++” High Activity ≥ 0.7)
5,"CCOC(=O)Nc1nn(CC)c(C)c1C1CC1 [Compound 6, ethyl (4-cyclopropyl-1-ethyl-5-methyl-1H-pyrazol-3-yl)carbamate]",− (“−” No Activity < 0.15)
6,"Cn1nc(NC(=O)C2(C(F)(F)F)CC2)c(C2CCC2)c1-c1ccc(F)cc1 [Compound 126, N-(4-cyclobutyl-5-(4-fluorophenyl)-1-methyl-1H-pyrazol-3-yl)-1-(trifluoromethyl)cyclopropane-1-carboxamide]",++ (“++” High Activity ≥ 0.7)
7,"CCn1nc(NC(=O)Cc2ccccc2C(F)(F)F)c(C2CC2)c1C [Compound 8, N-(4-cyclopropyl-1-ethyl-5-methyl-1H-pyrazol-3-yl)-2-(2-(trifluoromethyl)phenyl)acetamide]",+ (“+” Moderate Activity 0.15-0.7)
8,"CCn1nc(NC(=O)CC(C(F)(F)F)C(F)(F)F)c(C2CC2)c1C [Compound 2, N-(4-cyclopropyl-1-ethyl-5-methyl-1H-pyrazol-3-yl)-4,4,4-trifluoro-3-(trifluoromethyl)butanamide]",+ (“+” Moderate Activity 0.15-0.7)
9,"Cn1nc(NC(=O)CC2(C(F)(F)F)CC2)c(C2CCC2)c1-c1ccccc1 [Compound 12, N-(4-cyclobutyl-1-methyl-5-phenyl-1H-pyrazol-3-yl)-2-(1-(trifluoromethyl)cyclopropyl)acetamide]",++ (“++” High Activity ≥ 0.7)
10,"Cn1nc(NC(=O)[C@H]2CC2(F)F)c(C2CCC2)c1-c1ccc(Cl)cc1 [Compound 224, (R)-N-(5-(4-chlorophenyl)-4-cyclobutyl-1-methyl-1H-pyrazol-3-yl)-2,2-difluorocyclopropane-1-carboxamide]",− (“−” No Activity < 0.15)
11,"CC[C@H](C)CC(=O)Nc1nn(C)c(-c2ccc(F)cc2)c1C1CCC1 [Compound 104, (S)-N-(4-cyclobutyl-5-(4-fluorophenyl)-1-methyl-1H-pyrazol-3-yl)-3-methylpentanamide]",++ (“++” High Activity ≥ 0.7)
12,"Cn1nc(NC(=O)CC2COC2)c(C2CCC2)c1-c1ccc(OC(F)(F)F)cc1 [Compound 84, N-(4-cyclobutyl-1-methyl-5-(4-(trifluoromethoxy)phenyl)-1H-pyrazol-3-yl)-2-(oxetan-3-yl)acetamide]",− (“−” No Activity < 0.15)
13,"CCO[C@@H](CC(=O)Nc1nn(C)c(-c2ccc(F)c(F)c2)c1C1CCC1)C(F)(F)F [Compound 214, (S)-N-(4-cyclobutyl-5-(3,4-difluorophenyl)-1-methyl-1H-pyrazol-3-yl)-3-ethoxy-4,4,4-trifluorobutanamide]",++ (“++” High Activity ≥ 0.7)
14,"Cn1nc(NC(=O)OC2CC(F)(F)C2)c(C2CCC2)c1-c1ccc(OC(F)(F)F)cc1 [Compound 281, 3,3-difluorocyclobutyl (4-cyclobutyl-1-methyl-5-(4-(trifluoromethoxy)phenyl)-1H-pyrazol-3-yl)carbamate]",++ (“++” High Activity ≥ 0.7)
15,"Cn1nc(NC(=O)C2(C)CC(F)(F)C2)c(C2CCC2)c1-c1ccc(F)c(F)c1 [Compound 201, N-(4-cyclobutyl-5-(3,4-difluorophenyl)-1-methyl-1H-pyrazol-3-yl)-3,3-difluoro-1-methylcyclobutane-1-carboxamide]",++ (“++” High Activity ≥ 0.7)
16,"CCn1nc(NC(=O)CC(C)C)c(C2CC2)c1C [Compound 5, N-(4-cyclopropyl-1-ethyl-5-methyl-1H-pyrazol-3-yl)-3-methylbutanamide]",− (“−” No Activity < 0.15)
17,"Cn1nc(NC(=O)C2(C(C)(F)F)CC2)c(C2CCC2)c1-c1ccc(F)cc1 [Compound 131, N-(4-cyclobutyl-5-(4-fluorophenyl)-1-methyl-1H-pyrazol-3-yl)-1-(1,1-difluoroethyl)cyclopropane-1-carboxamide]",++ (“++” High Activity ≥ 0.7)
18,"Cn1nc(NC(=O)[C@H]2C[C@]2(C)C(F)F)c(C2CCC2)c1-c1ccc(F)cc1 [Compound 111, (1S,2S)-N-(4-cyclobutyl-5-(4-fluorophenyl)-1-methyl-1H-pyrazol-3-yl)-2-(difluoromethyl)-2-methylcyclopropane-1-carboxamide]",++ (“++” High Activity ≥ 0.7)
19,"Cn1nc(NC(=O)C2(C)CC2)c(C2CCC2)c1-c1ccc(F)cc1 [Compound 146, N-(4-cyclobutyl-5-(4-fluorophenyl)-1-methyl-1H-pyrazol-3-yl)-1-methylcyclopropane-1-carboxamide]",+ (“+” Moderate Activity 0.15-0.7)
20,"Cn1nc(NC(=O)[C@H]2C(C)(C)C2(F)F)c(C2CCC2)c1-c1ccc(OC(F)(F)F)cc1 [Compound 52, (R)-N-(4-cyclobutyl-1-methyl-5-(4-(trifluoromethoxy)phenyl)-1H-pyrazol-3-yl)-2,2-difluoro-3,3-dimethylcyclopropane-1-carboxamide]",+ (“+” Moderate Activity 0.15-0.7)
21,"Cn1nc(NC(=O)N[C@H]2CCC(F)(F)C2)c(C2CCC2)c1-c1ccc(F)cc1 [Compound 237, (S)-1-(4-cyclobutyl-5-(4-fluorophenyl)-1-methyl-1H-pyrazol-3-yl)-3-(3,3-difluorocyclopentyl)urea]",+ (“+” Moderate Activity 0.15-0.7)
22,"Cn1nc(NC(=O)[C@H]2CC2(F)F)c(C2CCC2)c1-c1cccc(F)c1 [Compound 168, (R)-N-(4-cyclobutyl-5-(3-fluorophenyl)-1-methyl-1H-pyrazol-3-yl)-2,2-difluorocyclopropane-1-carboxamide]",++ (“++” High Activity ≥ 0.7)
23,"Cn1nc(NC(=O)OC2CC(F)(F)C2)c(C2CCC2)c1-c1cc(F)c(F)c(F)c1 [Compound 287, 3,3-difluorocyclobutyl (4-cyclobutyl-1-methyl-5-(3,4,5-trifluorophenyl)-1H-pyrazol-3-yl)carbamate]",++ (“++” High Activity ≥ 0.7)
24,"Cn1nc(NC(=O)[C@H]2CC2(F)F)c(C2CCC2)c1-c1ccc(F)cc1F [Compound 159, (R)-N-(4-cyclobutyl-5-(2,4-difluorophenyl)-1-methyl-1H-pyrazol-3-yl)-2,2-difluorocyclopropane-1-carboxamide]",+ (“+” Moderate Activity 0.15-0.7)
25,"Cn1nc(NC(=O)[C@H]2CC2(F)F)c(C2CCC2)c1C1CC(F)(F)C1 [Compound 157, (R)-N-(4-cyclobutyl-5-(3,3-difluorocyclobutyl)-1-methyl-1H-pyrazol-3-yl)-2,2-difluorocyclopropane-1-carboxamide]",++ (“++” High Activity ≥ 0.7)
26,"Cn1nc(NC(=O)NCC2CC(F)(F)C2)c(C2CCC2)c1-c1ccc(F)cc1 [Compound 242, 1-(4-cyclobutyl-5-(4-fluorophenyl)-1-methyl-1H-pyrazol-3-yl)-3-((3,3-difluorocyclobutyl)methyl)urea]",+ (“+” Moderate Activity 0.15-0.7)
27,"Cn1nc(NC(=O)C2CC(C(F)(F)F)C2)c(C2CCC2)c1-c1ccc(OC(F)(F)F)cc1 (stereo not drawn) [Compound 191, N-(4-cyclobutyl-1-methyl-5-(4-(trifluoromethoxy)phenyl)-1H-pyrazol-3-yl)-3-(trifluoromethyl)cyclobutane-1-carboxamide]",++ (“++” High Activity ≥ 0.7)
28,"Cn1nc(NC(=O)[C@@H]2CC2(F)F)c(C2CCC2)c1C1CC(C)(C)C1 [Compound 147, (S)-N-(4-cyclobutyl-5-(3,3-dimethylcyclobutyl)-1-methyl-1H-pyrazol-3-yl)-2,2-difluorocyclopropane-1-carboxamide]",++ (“++” High Activity ≥ 0.7)
29,"Cn1nc(NC(=O)C2CC(F)(F)C2)c(C2CCC2)c1-c1ccc(C(F)(F)F)cc1 [Compound 209, N-(4-cyclobutyl-1-methyl-5-(4-(trifluoromethyl)phenyl)-1H-pyrazol-3-yl)-3,3-difluorocyclobutane-1-carboxamide]",+ (“+” Moderate Activity 0.15-0.7)
30,"Cn1nc(NC(=O)[C@H]2CC2(C)C)c(-c2ccc(F)cc2)c1C1CC(F)(F)C1 [Compound 207, (S)-N-(5-(3,3-difluorocyclobutyl)-4-(4-fluorophenyl)-1-methyl-1H-pyrazol-3-yl)-2,2-dimethylcyclopropane-1-carboxamide]",++ (“++” High Activity ≥ 0.7)
